In ChEMBL document CHEMBL1152326, “Anti-inflammatory sesquiterpenoids from a sponge-derived Fungus Acremonium sp” (J Nat Prod, 2009) one finds Activity data, which are given here for four compounds.

The subject of test [1] is RAW264.7. In words: Antiinflammatory activity in mouse RAW264.7 cells assessed as inhibition of LPS-induced nitric oxide production at 100 uM after 24 hrs by Griess reagent method relative to control. It is filed as functional, cell-based. On the technique in general: Griess reagent forms a coloured azo dye with nitrite.
For test [2], the system named is RAW264.7. Kind of test: Antiinflammatory activity in mouse RAW264.7 cells assessed as inhibition of LPS-induced TNFalpha production at 100 uM after 24 hrs by ELISA relative to control. The class given is functional, cell-based.

Activity calls are given as the source filed them. The rule behind the calls is not given here.

`C/C(=C\Cc1c(O)c(Cl)c(C)c(C=O)c1O)CC[C@@]1(C)[C@H](C)CCC(=O)[C@@H]1C`: in the test with RAW264.7 [1], the outcome was Active.
As for `CC(/C=C/[C@@]1(C)[C@H](C)CCC(=O)[C@@H]1C)=C\Cc1c(O)c(Cl)c(C)c(C=O)c1O`, the outcome with RAW264.7 [2] and with RAW264.7 [1] was Active.
For the compound `C/C(=C\Cc1c(O)c(Cl)c(C)c(C=O)c1O)CC/C=C(\C)[C@@H]1CC(=O)C(C)(C)O1`, the outcome in the test on RAW264.7 [2] and in the test on RAW264.7 [1] was Active.
Consider `C/C(=C\Cc1c(O)cc(C)c(C=O)c1O)CC[C@@]1(C)[C@H](C)CCC(=O)[C@@H]1C`, for which the outcome in the test on RAW264.7 [1] was Active.
